From patent publication US5989555A, “Extracts of Larrea tridentata having antiviral activity and their use for treating viral infections” (priority 1996, dated 1999)
Several values for one entry are separate records, joined by “and”; a condition that tells them apart may be missing. Equal entries are not always repeated.

What was measured:
HIV-1 Tat protein = test: cells; assay type: cell-based; details: Table 3, samples run in duplicate, each value mean of two determinations; for inhibition at 10 µg/mL / inhibition at 30 µg/mL: Human immunodeficiency virus 1, COS; for inhibition at 10 µg/mL: read-out: % Inhibition of Tat Transactivation, 10 μg/ml; for inhibition at 30 µg/mL: read-out: % Inhibition of Tat Transactivation, 30 μg/ml
Protocol: […] P. Loeffler and J. P. Behr, Meth. Enzymol. 217:599 (1993)). Cells were incubated for 12-15 hours after transfection before the extract was added at the various concentrations noted. The cultures were incubated for 48 hours, after which 250 μl of the culture supernatant was assayed for SEAP activity as described in Example 4.
The SEAP Assay. The "SEcreted Alkaline Phosphatase" assay for Tat transactivation has been described previously (Berger et al., Gene 66:1-10, 1988; Bohan et al., Gene Expression 2(4):391-407, 1992). The details of the entire procedure for the SEAP inhibition assay as used herein have been described (Gnabre et al. Journal of Chromatography A 719:353-364 (1996)).
The secreted alkaline phosphatase analysis was performed as originally described by Berger et al. In this assay, a DNA expression vector wherein a structural gene encoding a secreted alkaline phosphatase is driven by an enhancer-linked promoter is transfected into target cells. The cells are then exposed to compounds which affect the binding/activation of the transcription regulatory proteins, and the amount of SEAP activity in the medium is measured.
As to the alkaline phosphatase assay, briefly, a 250-μl aliquot was removed from COS cell culture supernatants, heated at 65° C. for 5 minutes to selectively inactivate endogenous phosphatase (SEAP is heat stable) and centrifuged in a microfuge for 2 minutes. […] of 2×SEAP assay buffer (1.0 M diethanolamine, pH 9.8; 0.5 mM MgCl2; 10 mM L-homoarginine) was added to 100-μl aliquot of the samples. The solution was mixed and transferred into a 96-well flat-bottom culture dish (Corning). Twenty μl of pre-warmed substrate solution (120 mM p-nitrophenylphosphate dissolved in 1×SEAP assay buffer) were dispensed with a multipipeter into each well containing the reaction mixture. The A405 of the reaction was read at 5-minute intervals at 37° C. for 60 minutes using an EL340i microplate reader (Bio-tek Instruments, Inc.) with 5-second automatic shakings before each reading. The change in absorbance was plotted against time in the standard assay of SEAP induction. In the drug screening assay, the percent inhibition of SEAP expression was calculated at its 30 min endpoint as follows:
% Inhibition=100-[(CT^+ -C^+)/(CT^- -C^-)]×100
The 3-Magi extract was monitored by SiO2 TLC with cerium sulfate charring, 2% CeSO4 (w/V) in 5.6% H2 SO4 (v/v), and by the SEAP assay for anti Tat-TRS activity. For the SEAP assay, test materials were dissolved in 10% DMSO solution made in calcium-free, magnesium-free PBS (Ca--Mg-free PBS). The suspension was centrifuged and the stock solution (10 mg/ml) was filter-sterilized using a Millex-GS […] filter (Millipore). Appropriate dilutions of the stock solution were prepared in a final DMSO concentration of 0.2% in Ca--Mg-free PBS to obtain the various concentrations of test compounds.
The 3-Magi extract prepared as in Examples 1 and 2 was assayed by the SEAP assay for anti Tat-TRS activity. […] Briefly, a day before DNA transfection, Linbro® 24 flat bottom wells of 17-mm diameter plates were pretreated with 0.5 ml sterile solution of 0.1% gelatin. The plates were kept in a tissue culture hood for 1 hour (all transfection steps were performed in the hood, unless otherwise stated). The gelatin solution was aspirated and the plates were washed with 0.5 ml of Iscove's Modified Delbecco's Medium (IMDM) supplemented with 10% fetal calf serum and antibiotics (complete medium). COS cells were seeded at a density of ≈1.5×10^5 cells per 17-mm plate and incubated in a humidified 95% air/5% CO2 incubator at 37° C. DNA transfection was performed at 50-60% cell confluency.

HIV-LTR = test: in vitro HIV gene transcription assay (Hela whole-cell extract, pLTR-1CAT template); assay type: biochemical, HIV-1; details: for CPM of run off transcription: 329 nt run off, DMSO control 625; for % Transcription (% T): DMSO control = 100
Protocol: This procedure was utilized to test lignans from the creosote bush including Rev.10:7 lignans (FB3 and FB5).
The inhibitory activity of the lignans prepared by the large scale isolation described in FIG. 6 is shown. The activity of the cyclolignans FB3 and FB5 is highlighted. Compounds FB1, FB2 and FB4 were each tested at 100, 120, 140 μg/ml. Rev.10:7 lignans (FB3 and FB5) were tested only at 100, 120 μg/ml.
The DNA used as template was the plasmid pLTR-1CAT, which contains HIV-LTR (-453 to +126) fused to the prokaryotic chloramphenicol acetyltransferase (CAT) gene. Unlabeled nucleoside triphosphates were from Pharmacia, and [α-^32 P]UTP (400 Ci/mmol) from Amersham.
DNA digests were then subjected to twice phenol-chloroform-isoamyl alcohol […] extractions and subsequently precipitated by ethanol. Hela whole-cell extracts (Manley extract) containing the polymerase and the transcription factors was prepared as previously described (Manley et al., Proc. Acad. Sci. USA 77:3855-3859 (1988)).
The transcription assay has been previously described (Bohan et al., Gene Expression 2:391-407 (1992)). Extracts prepared by the method of Manley, described above, (40 μg/reaction) and DNA template (0.4 μg/reaction)were preincubated with 0.4 μl of various concentrations of test compounds for 15 min at 30° C. The in vitro transcription buffer of Manley extract contained 10 mM HEPES (pH 7.9), 50 mM KCl, 0.5 mM EDTA, 1.5 mM […], 6.25 mM MgCl2, and 8.5% glycerol. Unlabeled nucleoside triphosphates and [α-^32 P]UTP (400 Ci/mmol) were mixed and added to the reaction mixture. The final volume of the reaction was brought to 15 μl followed by 1 hour incubation at 30° C. as illustrated in FIG. 9.
The transcription reaction was terminated by addition of 300 μl of stop solution (20 mM tris-HCl (pH 7.8), 150 mM NaCl, and 0.2% SDS), and extracted with equal volume of phenol. RNA in the aqueous phase was precipitated with 2.5 volumes of EtOH and 0.1 volume of 3 M sodium acetate. Following centrifugation, RNA pellets were washed with EtOH, dried and resuspended in 15 μl of denaturation mix containing 50% formamide:50% of 2×TBE, Xylene cyanol and bromophenol blue. The mixture was heated at 90° C. for 3 min, and electrophoresed at 400 V in 4% polyacrylamide (19:1 acrylamide:bisacrylamide) gel containing 7 M urea (prerun at 200 V for 30 min) and 1×TBE. The gel was exposed to Kodak XR-5 film at -70° C. with intensifying screens for autoradiography. Table 4 illustrates the same results in numerical form after radioactivity counts of the 329 nt run off transcription spots.

[1] = 140 μg/ml, estimated from Kodak film of gel after 3 day exposure

Row | Compound | % Inhibition of Tat Transactivation (HIV-1 Tat protein; 10 μg/ml) | inhibition at 10 µg/mL (HIV-1 Tat protein) | inhibition at 30 µg/mL (HIV-1 Tat protein) | CPM of run off transcription (HIV-LTR; 100 μg/ml) | % Transcription (% T) (HIV-LTR; 100 μg/ml) | % Inhibitor (100 - % T) (HIV-LTR; 120 μg/ml) | CPM of run off transcription (HIV-LTR; 120 μg/ml) | % Transcription (% T) (HIV-LTR; 120 μg/ml) | % Inhibitor (100 - % T) (HIV-LTR; [1]) | % Inhibition of Tat Transactivation (HIV-1 Tat protein; 30 μg/ml) | % Inhibitor (100 - % T) (HIV-LTR; 100 μg/ml)
1 | COc1cc(CC(C)C(C)Cc2ccc(O)c(O)c2)ccc1O (stereo not drawn) [FB2, 3'-O-methyl-NDGA] | 86% | 75% | 100% | 972 CPM | 155% | 0% | 661 CPM | 106% | > 90% | – | –
2 | 3'-demethoxy-6-dehydroxy-8-O-demethoxylisoguaiacin [FB3] | – | – | – | 169 CPM | 27% | 91% | 55 CPM | 9% | – | 69% and 59% | 73%
3 | C[C@H]1[C@H](c2ccc(O)cc2)c2cc(O)c(O)cc2C[C@H]1C [FB5, 3'-demethoxy-6-O-demethoxylisoguaiacin] | – | 63% | 84% | 373 CPM | 60% | 58% | 264 CPM | 42% | – | 87% | 40%
4 | COc1ccc(C[C@@H](C)[C@@H](C)Cc2ccc(O)c(O)c2)cc1O [FB1, 4'-O-methyl-NDGA] | 82% | 86% | 100% | 917 CPM | 147% | 0% | 804 CPM | 129% | > 50% | 99% | 0%
